From patent US11415579B2, “Assay for measuring a rate of reaction between a target and a ligand candidate” (Imperial College Innovations Ltd., priority 2016, dated 2022)

Legend:
[1] = Kinetic thiol consumption assay with model thiol glutathione; assay type: physicochemical; design: Rate constant with glutathione (k(GSH)): unit not given here; conditions: for Rate constant with Glutathione: Protein: Glutathione, cysteine position NA, in h-1; for Rate constant with glutathione (k(GSH)): 500 μM ligand, 5 μM thiol, phosphate buffer pH 8
Method: (§1) A library of 120 acrylamides was screened against a) human cyclin-dependent kinase 2 (Cdk2, which contains one surface exposed cysteine residue—C177), prepared by cloning cDNA into the pRSETA bacterial expression vector to generate a poly-histidine tagged Cdk2 fusion that was purified from E. coli using standard techniques, and b) a model thiol (specific details are given below). The structures of these 120 acrylamides are set out in Table 1, above.
(§2) To wells containing 150 μL thiol (Cdk2 or model thiol) (5 μM) in degassed phosphate buffer (pH 8) was added immobilized TCEP beads (2% v/v).
(§3) After incubation of the fluorescence plates for 1 hour at room temperature, fluorescence measurements (excitation/emission of 380/470 nm) were taken on a PerkinElmer EnVision multilabel plate reader and processed with EnVision Workstation version 1.12.
(§4) Fluorescence measurements were normalized against a DMSO/thiol only control and plotted against time.
(§5) Rate constants were calculated using GraphPad software Prism version 6 by fitting a first order exponential decay to the data. The rate constant for each acrylamide with Cdk2 was divided by the rate constant for that fragment with the model thiol to provide the rate enhancement for each ligand candidate.
The model thiol in Example 1 is glutathione (GSH). Hits were defined as fragments where kCdk2/kGSH>5.8 (empirically determined as 3 standard deviations over the mean).

[2] = molecular target: T1, human cyclin-dependent kinase 2 (Cdk2) (Homo sapiens, UniProt P24941); assay: Kinetic thiol consumption assay with wild type Cdk2 (C177); assay type: binding; design: key to Rate enhancement, Cdk2 WT: k(Cdk2) divided by k(model thiol); Rate constant with Cdk2 (k(Cdk2)): unit not given here; conditions: for Rate enhancement, Cdk2 WT: no additional mutations; for Rate constant with Cdk2 WT: Protein: Cdk2, cysteine position WT, in h^-1; for Rate constant with Cdk2 (k(Cdk2)): 500 μM ligand, 5 μM thiol, phosphate buffer pH 8; for k(Cdk2)/k(GSH) rate enhancement: model thiol glutathione
T1 construct: poly-histidine; made in house; host or cells: E. coli
Method: as §1, §2, §3, §4, §5

Cdk2(C177A, F80C) = molecular target: T2, Cdk2(C177A, F80C) (Homo sapiens, UniProt P24941, C177A/F80C); assay: Kinetic thiol consumption assay with Cdk2 mutant F80C, incl. kobs versus concentration (Kd, k2); assay type: binding; design: key to Rate enhancement, Cdk2 F80C: Cdk2 rate constant divided by model-thiol rate constant; conditions: additional mutation C177A; for Rate constant with Cdk2 F80C: Protein: Cdk2, cysteine position F80C, in h^-1
T2 construct: poly-histidine; made in house; host or cells: E. coli
Method: Therefore the assay can be used to calculate both k2 and Kd by experimentally determining kobs at a suitable range of ligand candidate concentrations. Typically Kd and k2 would then be determined by fitting a hyperbolic curve to a plot of kobs against ligand candidate concentration (FIG. 9).
as §2, §3, §4, §5
(§6) A further set of set of additional Cdk2 mutants were screened, all containing the C177A mutation and therefore with only one cysteine on the surface: • F80C (without the K278C mutation) • H71C • S276C • N272 • T182C • R122C • S181C
(§7) Mutations were introduced by site-directed mutagenesis and the resulting cDNA was cloned into the pRSETA bacterial expression vector to generate a poly-histidine tagged Cdk2 fusion that was purified from E. coli using standard techniques.
Rate constants were calculated as described in the methodology section of Examples 1 and 2.

Cdk2(H71C) (C177A) = molecular target: T3, Cdk2(H71C) (C177A) (Homo sapiens, UniProt P24941, C177A/H71C); assay: Kinetic thiol consumption assay with Cdk2 mutant H71C; assay type: binding; design: key to Rate enhancement, Cdk2 H71C: rate constant with Cdk2 ÷ rate constant with model thiol (fold); conditions: additional mutation C177A; for Rate constant with Cdk2 H71C: Protein: Cdk2, cysteine position H71C, in h^-1
T3 construct: poly-histidine; made in house; host or cells: E. coli
Method: as §2, §3, §4, §5, §6, §7

Cdk2(S276C) (C177A) = molecular target: T4, Cdk2(S276C) (C177A) (Homo sapiens, UniProt P24941, C177A/S276C); assay: Kinetic thiol consumption assay with Cdk2 mutant S276C; assay type: binding; design: key to Rate enhancement, Cdk2 S276C: rate constant with Cdk2 ÷ rate constant with model thiol (fold); conditions: additional mutation C177A; for Rate constant with Cdk2 S276C: Protein: Cdk2, cysteine position S276C, in h^-1
T4 construct: poly-histidine; made in house; host or cells: E. coli
Method: as §2, §3, §4, §5, §6, §7

Cdk2(N272C) (C177A) = molecular target: T5, Cdk2(N272C) (C177A) (Homo sapiens, UniProt P24941, C177A/N272C); assay: Kinetic thiol consumption assay with Cdk2 mutant N272C; assay type: binding; design: key to Rate enhancement, Cdk2 N272: rate constant with Cdk2 ÷ rate constant with model thiol (fold); conditions: for Rate enhancement, Cdk2 N272: Cdk2 N272, additional mutation C177A; for Rate constant with Cdk2 N272C: Protein: Cdk2, cysteine position N272C, additional mutation C177A, in h^-1
T5 construct: poly-histidine; made in house; host or cells: E. coli
Method: as §2, §3, §4, §5, §6, §7

Cdk2(T182C) (C177A) = molecular target: T6, Cdk2(T182C) (C177A) (Homo sapiens, UniProt P24941, C177A/T182C); assay: Kinetic thiol consumption assay with Cdk2 mutant T182C; assay type: binding; design: key to Rate enhancement, Cdk2 T182C: rate constant with Cdk2 ÷ rate constant with model thiol (fold); conditions: additional mutation C177A; for Rate constant with Cdk2 T182C: Protein: Cdk2, cysteine position T182C, in h^-1
T6 construct: poly-histidine; made in house; host or cells: E. coli
Method: as §2, §3, §4, §5, §6, §7

Cdk2(R122C) (C177A) = molecular target: T7, Cdk2(R122C) (C177A) (Homo sapiens, UniProt P24941, C177A/R122C); assay: Kinetic thiol consumption assay with Cdk2 mutant R122C; assay type: binding; design: key to Rate enhancement, Cdk2 R122C: rate constant with Cdk2 ÷ rate constant with model thiol (fold); conditions: additional mutation C177A; for Rate constant with Cdk2 R122C: Protein: Cdk2, cysteine position R122C, in h-1
T7 construct: poly-histidine; made in house; host or cells: E. coli
Method: as §2, §3, §4, §5, §6, §7

Cdk2(S181C) (C177A) = molecular target: T8, Cdk2(S181C) (C177A) (Homo sapiens, UniProt P24941, C177A/S181C); assay: Kinetic thiol consumption assay with Cdk2 mutant S181C; assay type: binding; design: key to Rate enhancement, Cdk2 S181C: rate constant with Cdk2 ÷ rate constant with model thiol (fold); conditions: additional mutation C177A; for Rate constant with Cdk2 S181C: Protein: Cdk2, cysteine position S181C, in h^-1
T8 construct: poly-histidine; made in house; host or cells: E. coli
Method: as §2, §3, §4, §5, §6, §7

| Structure (SMILES) | Rate enhancement, Cdk2 WT [2] | Rate constant with Cdk2 WT [2] | Rate enhancement, Cdk2 F80C (Cdk2(C177A, F80C)) | Rate constant with Cdk2 F80C (Cdk2(C177A, F80C)) | Rate enhancement, Cdk2 H71C (Cdk2(H71C) (C177A)) | Rate constant with Cdk2 H71C (Cdk2(H71C) (C177A)) | Rate enhancement, Cdk2 S276C (Cdk2(S276C) (C177A)) | Rate constant with Cdk2 S276C (Cdk2(S276C) (C177A)) | Rate enhancement, Cdk2 N272 (Cdk2(N272C) (C177A)) | Rate constant with Cdk2 N272C (Cdk2(N272C) (C177A)) | Rate enhancement, Cdk2 T182C (Cdk2(T182C) (C177A)) | Rate constant with Cdk2 T182C (Cdk2(T182C) (C177A)) | Rate enhancement, Cdk2 R122C (Cdk2(R122C) (C177A)) | Rate constant with Cdk2 R122C (Cdk2(R122C) (C177A)) | Rate enhancement, Cdk2 S181C (Cdk2(S181C) (C177A)) | Rate constant with Cdk2 S181C (Cdk2(S181C) (C177A)) | Rate constant with Cdk2 (k(Cdk2)) [2] | k(Cdk2)/k(GSH) rate enhancement [2] | Rate constant with Glutathione [1] | Rate constant with glutathione (k(GSH)) [1] |
| --- | --- | --- | --- | --- | --- | --- | --- | --- | --- | --- | --- | --- | --- | --- | --- | --- | --- | --- | --- | --- |
| C=CC(=O)N(c1cccc2ncccc12)C1CCC1 [CA-032/228] | 1.405 | 0.02299 | 2.232 | 0.03651 | 15.36 | 0.2513 | 1.851 | 0.03029 | 3.007 | 0.04919 | 14.8 | 0.2422 | 1.534 | 0.02509 | 1.043 | 0.01707 | – | – | 0.01636 | – |
| C=CC(=O)N1CCn2c(C(=O)NC3CC3)ccc2C1C (stereo not drawn) [CA-040/230] | 0.6915 | 0.02965 | 0.3102 | 0.0133 | 0.7334 | 0.03145 | 0.7654 | 0.03282 | 3.076 | 0.1319 | 1.268 | 0.05436 | 0.285 | 0.01222 | 0.247 | 0.01059 | – | – | 0.04288 | – |
| C=CC(=O)N(CC(=O)N1CCCC1)CC1CCCO1 (stereo not drawn) [CA-080/239] | 0.2317 | 0.00279 | 0.08364 | 0.001007 | 0 | – | 0.2885 | 0.003474 | 0.2756 | 0.003318 | 0.9651 | 0.01162 | 0.173 | 0.002083 | 0.1377 | 0.001658 | – | – | 0.01204 | – |
| C=CC(=O)N(CC(=O)N1CCCC1)CC1CCCO1 (stereo not drawn) [CA-080] | – | – | – | – | – | – | – | – | – | – | – | – | – | – | – | – | 0.00195 | 0.2764 | – | 0.00706 |
| C=CC(=O)N(C1CC1)C1CCCCC1C1CCCCC1 (stereo not drawn) [CA-081/240] | 7.599 | 0.01776 | 4.621 | 0.0108 | 0.9042 | 0.002113 | 7.411 | 0.01732 | 3.276 | 0.007657 | 8.314 | 0.01943 | 0.7099 | 0.001659 | 9.936 | 0.02322 | – | – | 0.002337 | – |
| C=CC(=O)N1CCCC1CC1CC2CCC1C2 (stereo not drawn) [CA-087] | 1.059 | 0.00896 | 0.4785 | 0.004048 | 35.53 | 0.3006 | 0.7322 | 0.006194 | 0.3045 | 0.002576 | 6.465 | 0.05469 | 0.319 | 0.002699 | 0.6457 | 0.005463 | 0.00508 | 0.9957 | 0.00846 | 0.0051 |
| Cn1cc(S(=O)(=O)N2CCOCC2)cc1C(=O)NC(=O)CCl [EN002] | 1.276 | 0.006451 | 49.31 | 0.2493 | 7.5652E−12 | 3.825E−14 | 0 | – | 1.133 | 0.00573 | 2.567 | 0.01298 | 0.1371 | 0.0006932 | 0.2957 | 0.001495 | – | – | – | – |

Now from value to compound, other results behind:

| Rate enhancement, Cdk2 WT [2] | Rate constant with Cdk2 WT [2] | Rate enhancement, Cdk2 F80C (Cdk2(C177A, F80C)) | Rate constant with Cdk2 F80C (Cdk2(C177A, F80C)) | Rate enhancement, Cdk2 H71C (Cdk2(H71C) (C177A)) | Rate constant with Cdk2 H71C (Cdk2(H71C) (C177A)) | Rate enhancement, Cdk2 S276C (Cdk2(S276C) (C177A)) | Rate constant with Cdk2 S276C (Cdk2(S276C) (C177A)) | Rate enhancement, Cdk2 N272 (Cdk2(N272C) (C177A)) | Rate constant with Cdk2 N272C (Cdk2(N272C) (C177A)) | Rate enhancement, Cdk2 T182C (Cdk2(T182C) (C177A)) | Rate constant with Cdk2 T182C (Cdk2(T182C) (C177A)) | Rate enhancement, Cdk2 R122C (Cdk2(R122C) (C177A)) | Rate constant with Cdk2 R122C (Cdk2(R122C) (C177A)) | Rate enhancement, Cdk2 S181C (Cdk2(S181C) (C177A)) | Rate constant with Cdk2 S181C (Cdk2(S181C) (C177A)) | Rate constant with Cdk2 (k(Cdk2)) [2] | k(Cdk2)/k(GSH) rate enhancement [2] | Structure (SMILES) | Rate constant with Glutathione [1] | Rate constant with glutathione (k(GSH)) [1] |
| --- | --- | --- | --- | --- | --- | --- | --- | --- | --- | --- | --- | --- | --- | --- | --- | --- | --- | --- | --- | --- |
| 0 | – | 0.9144 | 0.001332 | 0 | – | 0 | – | 0 | 0.001652 | 0.9515 | 0.001386 | – | – | – | – | – | – | N#Cc1ccncn1 [EN007] | – | – |
| 0 | – | 4.64 | 0.2076 | 0 | – | 1.5439E−13 | 6.908E−15 | 0.2037 | 0.009116 | 0.1321 | 0.005911 | 0 | – | 0.02434 | 0.001089 | – | – | FC(F)(F)c1cc(Cl)ncc1Br [EN008] | – | – |
| 0 | – | 3.246 | 0.02092 | 5.4624E−12 | 3.52E−14 | 0.921 | 0.005935 | 0 | – | 1.07 | 0.006898 | 0.132 | 0.0008504 | 0.6302 | 0.004061 | – | – | CN(C#N)Cc1ccccc1 [EN009] | – | – |
